Results from patent US10577363B2, “Substituted piperidine compounds” (EPIZYME, INC., priority 2014, dated 2020).

These molecules were tested against SMYD3 (Homo sapiens (Human), UniProt Q9H7B4) (assay: SMYD3 biochemical assay (SPA, 3H-SAM methylation of MEKK2 protein substrate)). Settings: read-out: SMYD3 Biochem IC50 (μM)*.
Text: S-adenosylmethionine (SAM), S-adenosylhomocysteine (SAH), Tris, Tween20, dimethylsulfoxide (DMSO), bovine skin gelatin (BSG), and Tris(2-carboxyethyl)phosphine hydrochloride solution (TCEP) were purchased from Sigma-Aldrich at the highest level of purity possible. ^3H-SAM was purchase from American Radiolabeled Chemicals with a specific activity of 80 Ci/mmol. 384-well opaque white OptiPlates and SPA beads (Perkin Elmer, catalog # RPNQ0013) were purchased from PerkinElmer.
N-terminally GST-tagged MEKK2 (MAP3K2) protein corresponding to reference sequence AAF63496.3 was purchased from Life Technologies (catalog # PV4010). This protein was expressed in High Five insect cells and purified to >85% purity. Protein identity was confirmed by MS/MS analysis after proteolytic digestion. The protein sequence used was:
Full-length human SMYD3 isoform 1 (BAB86333) was inserted into a modified pET21b plasmid containing a His6 tag and TEV and SUMO cleavage sites.
E. coli (BL21 codonplus RIL strain, Stratagene) were transformed with plasmid pEPZ553 by mixing competent cells and plasmid DNA and incubating on ice for 30 minutes followed by heat shock at 42° C. for 1 minute and cooling on ice for 2 minutes. Transformed cells were grown and selected on LB agar with 100 μg/mL ampicillin and 17 μg/mL chloramphenicol at 37° C. overnight. A single clone was used to inoculate 200 mL of LB medium with 100 μg/mL ampicillin and 17 μg/mL chloramphenicol and incubated at 37° C. on an orbital shaker at 180 rpm. Once in log growth, the culture was diluted 1:100 into 2 L of LB medium and grown until OD600 was about 0.3 after which the culture was incubated at 15° C. and 160 rpm. Once OD600 reached about 0.4, IPTG was added to a final concentration of 0.1 mM and the cells were grown overnight at 15° C. and 160 rpm. Cells were harvested by centrifugation at 8000 rpm, for 4 minutes at 4° C. and stored at −80° C. for purification.
The column was washed with Buffer B (Buffer A plus 20 mM imidazole) and His-tagged SMYD3 was eluted with Buffer C (Buffer A plus 300 mM imidazole). The His tag, TEV and SUMO cleavage sites were removed generating native SMYD3 by addition of ULP1 protein at a ratio of 1:200 (ULP1:SMYD3). Imidazole was removed by dialysis overnight in Buffer A. The dialyzed solution was applied to a second Nickel column and the native SMYD3 protein was collected from the column flow-through. The flow-through was dialyzed in Buffer D (25 mM Tris, 5% glycerol, 5 mM β-mercaptoethanol, 50 mM NaCl, pH7.8) and ULP1 was removed using a Q sepharose fast flow column.
General Procedure for SMYD3 Enzyme Assays on MEKK2 Protein Substrate
The assays were all performed in a buffer consisting of 25 mM Tris-Cl pH 8.0, 1 mM TCEP, 0.005% BSG, and 0.005% Tween 20, prepared on the day of use. […] DMSO (1 ul) was added to Columns 11, 12, 23, 24, rows A-H for the maximum signal control and 1 ul of SAH, a known product and inhibitor of SMYD3, was added to columns 11, 12, 23, 24, rows I-P for the minimum signal control. A cocktail (40 ul) containing the SMYD3 enzyme was added by Multidrop Combi (Thermo-Fisher). The compounds were allowed to incubate with SMYD3 for 30 min at room temperature, then a cocktail (10 ul) containing SAM and MEKK2 was added to initiate the reaction (final volume=51 ul). […] The assays were stopped by the addition of non-radiolabeled SAM (10 ul) to a final concentration of 100 uM, which dilutes the ^3H-SAM to a level where its incorporation into MEKK2 is no longer detectable. Radiolabeled MEKK2 was detected using a scintillation proximity assay (SPA). 10 uL of a 10 mg/mL solution of SPA beads in 0.5 M citric acid was added and the plates centrifuged at 600 rpm for 1 min to precipitate the radiolabeled MEKK2 onto the SPA beads. The plates were then read in a PerkinElmer TopCount plate reader to measure the quantity of ^3H-labeled MEKK2 as disintegrations per minute (dpm) or alternatively, referred to as counts per minute (cpm).

SMILES	IC50
NC[C@H](Cc1ccc(O)c(Cl)c1)C(=O)N1CCC(NC(=O)c2cc(C3CC3)on2)CC1 [compound 64, (S)-N-(1-(3-amino-2-(3-chloro-4-hydroxybenzyl)propanoyl)piperidin-4-yl)-5-cyclopropylisoxazole-3-carboxamide]	7.16 µM
C[C@H]1CN(C(=O)[C@@H](N)Cc2ccc(O)cc2)CCC1NC(=O)c1cc(C2CC2)on1 (stereo partly drawn) [compound 67, N-((3S)-1-(L-tyrosyl)-3-methylpiperidin-4-yl)-5-cyclopropylisoxazole-3-carboxamide]	2.32 µM
C[C@@H]1CN(C(=O)[C@@H](N)Cc2ccc(O)cc2)CCC1NC(=O)c1cc(C2CC2)on1 (stereo partly drawn) [compound 68, N-((3R)-1-(L-tyrosyl)-3-methylpiperidin-4-yl)-5-cyclopropylisoxazole-3-carboxamide]	1.69 µM
C[C@H]1CC(NC(=O)c2cc(C3CC3)on2)CCN1C(=O)CCN1CCCC1 (stereo partly drawn) [compound 69, 5-cyclopropyl-N-((2S)-2-methyl-1-(3-(pyrrolidin-1-yl)propanoyl)piperidin-4-yl)isoxazole-3-carboxamide]	12.4 µM
C[C@@H]1CC(NC(=O)c2cc(C3CC3)on2)CCN1C(=O)CCN1CCCC1 (stereo partly drawn) [compound 70, 5-cyclopropyl-N-((2R)-2-methyl-1-(3-(pyrrolidin-1-yl)propanoyl)piperidin-4-yl)isoxazole-3-carboxamide]	7.73 µM
C[C@H]1CC(NC(=O)c2cc(C3CC3)on2)CCN1C(=O)[C@H]1C[C@@H](N)C1 (stereo partly drawn) [compound 71, N-((2S)-1-((1s,3R)-3-aminocyclobutane-1-carbonyl)-2-methylpiperidin-4-yl)-5-cyclopropylisoxazole-3-carboxamide]	2.54 µM
C[C@H]1CC(NC(=O)c2cc(C3CC3)on2)CCN1C(=O)[C@H]1C[C@H](N)C1 (stereo partly drawn) [compound 72, N-((2S)-1-((1r,3S)-3-aminocyclobutane-1-carbonyl)-2-methylpiperidin-4-yl)-5-cyclopropylisoxazole-3-carboxamide]	2.72 µM
N[C@H]1CC[C@H](C(=O)N2C3CCCC2CC(NC(=O)c2cc(C4CC4)on2)C3)CC1 (some centres unmarked) [compound 73, N-(9-((1r,4r)-4-aminocyclohexane-1-carbonyl)-9-azabicyclo[3.3.1]nonan-3-yl)-5-cyclopropylisoxazole-3-carboxamide]	5.35 µM
CCS(=O)(=O)N1CCC(NC(=O)c2cc(C3CC3)on2)C[C@H]1C (stereo partly drawn) [compound 75, 5-cyclopropyl-N-((2R)-1-(ethylsulfonyl)-2-methylpiperidin-4-yl)isoxazole-3-carboxamide]	7.31 µM
CC[C@H]1CN(C(=O)CC2CCNCC2)CC[C@@H]1NC(=O)c1cc(C2CC2)on1 [compound 76, 5-cyclopropyl-N-((3S,4S)-3-ethyl-1-(2-(piperidin-4-yl)acetyl)piperidin-4-yl)isoxazole-3-carboxamide]	0.541 µM
N[C@H](Cc1ccc(O)cc1)CN1CCC(NC(=O)c2cc(C3CC3)on2)CC1 [compound 79, (R)-N-(1-(2-amino-3-(4-hydroxyphenyl)propyl)piperidin-4-yl)-5-cyclopropylisoxazole-3-carboxamide]	20.4 µM
CC1CN(C(=O)CCN)CCC1NC(=O)c1cc(C2CC2)on1 (centres unmarked) [compound 80, N-(1-(3-aminopropanoyl)-3-methylpiperidin-4-yl)-5-cyclopropylisoxazole-3-carboxamide]	6.81 µM
C[C@@H]1CC(NC(=O)c2cc(C3CC3)on2)CCN1C(=O)CN (stereo partly drawn) [compound 81, 5-cyclopropyl-N-((2R)-1-glycyl-2-methylpiperidin-4-yl)isoxazole-3-carboxamide]	22.1 µM
C[C@H]1C[C@@H](NC(=O)c2cc(C3CC3)on2)CCN1C(=O)CCN [compound 82, N-((2S,4S)-1-(3-aminopropanoyl)-2-methylpiperidin-4-yl)-5-cyclopropylisoxazole-3-carboxamide]	10.5 µM
C[C@H]1C[C@H](NC(=O)c2cc(C3CC3)on2)CCN1C(=O)CCN [compound 83, N-((2S,4R)-1-(3-aminopropanoyl)-2-methylpiperidin-4-yl)-5-cyclopropylisoxazole-3-carboxamide]	6.6 µM
C[C@@H]1CC(NC(=O)c2cc(C3CC3)on2)CCN1C(=O)CCN (stereo partly drawn) [compound 84, N-((2R)-1-(3-aminopropanoyl)-2-methylpiperidin-4-yl)-5-cyclopropylisoxazole-3-carboxamide]	6.14 µM
C[C@H]1CC(NC(=O)c2cc(C3CC3)on2)CCN1C(=O)[C@@H]1CC[C@@H](N)C1 (stereo partly drawn) [compound 85, N-((2S)-1-((1R,3R)-3-aminocyclopentane-1-carbonyl)-2-methylpiperidin-4-yl)-5-cyclopropylisoxazole-3-carboxamide]	2.37 µM
C[C@H]1CC(NC(=O)c2cc(C3CC3)on2)CCN1C(=O)[C@@H]1CC[C@H](N)C1 (stereo partly drawn) [compound 86, N-((2S)-1-((1R,3S)-3-aminocyclopentane-1-carbonyl)-2-methylpiperidin-4-yl)-5-cyclopropylisoxazole-3-carboxamide]	2.56 µM
C[C@@H]1CC(NC(=O)c2cc(C3CC3)on2)CCN1C(=O)[C@H]1C[C@@H](N)C1 (stereo partly drawn) [compound 87, N-((2R)-1-((1s,3S)-3-aminocyclobutane-1-carbonyl)-2-methylpiperidin-4-yl)-5-cyclopropylisoxazole-3-carboxamide]	3.25 µM
NC1CCC(C(=O)N2CCC(NC(=O)c3cc(C4CC4)on3)CC2c2ccccc2)CC1 (centres unmarked) [compound 89, N-(1-((1r,4r)-4-aminocyclohexane-1-carbonyl)-2-phenylpiperidin-4-yl)-5-cyclopropylisoxazole-3-carboxamide]	3.39 µM
CN[C@H]1CC[C@H](C(=O)N2CCC(NC(=O)c3cc(C4CC4)on3)C[C@@H]2C)CC1 (stereo partly drawn) [compound 90, 5-cyclopropyl-N-((2S)-2-methyl-1-((1r,4S)-4-(methylamino)cyclohexane-1-carbonyl)piperidin-4-yl)isoxazole-3-carboxamide]	5.33 µM
C[C@H]1CC(NC(=O)c2cc(C3CC3)on2)CCN1C(=O)CN1CCNCC1 (stereo partly drawn) [compound 91, 5-cyclopropyl-N-((2S)-2-methyl-1-(2-(piperazin-1-yl)acetyl)piperidin-4-yl)isoxazole-3-carboxamide]	3.91 µM
C[C@@H]1CC(NC(=O)c2cc(C3CC3)on2)CCN1C(=O)CN1CCNCC1 (stereo partly drawn) [compound 92, 5-cyclopropyl-N-((2R)-2-methyl-1-(2-(piperazin-1-yl)acetyl)piperidin-4-yl)isoxazole-3-carboxamide]	0.778 µM
CC[C@H]1CN(C(=O)C2CCC(N)CC2)CC[C@@H]1NC(=O)c1cc(C2CC2)on1 (stereo partly drawn) [compound 93, N-((3S,4S)-1-(4-aminocyclohexane-1-carbonyl)-3-ethylpiperidin-4-yl)-5-cyclopropylisoxazole-3-carboxamide]	1.61 µM
CC[C@H]1CC(NC(=O)c2cc(C3CC3)on2)CCN1C(=O)[C@H]1CC[C@H](N)CC1 (stereo partly drawn) [compound 94, N-((2S)-1-((1r,4S)-4-aminocyclohexane-1-carbonyl)-2-ethylpiperidin-4-yl)-5-cyclopropylisoxazole-3-carboxamide]	2.38 µM
C[C@@H]1CC(NC(=O)c2cc(C3CC3)on2)CCN1C(=O)[C@@H]1CC[C@@H](N)C1 (stereo partly drawn) [compound 95, N-((2R)-1-((1R,3R)-3-aminocyclopentane-1-carbonyl)-2-methylpiperidin-4-yl)-5-cyclopropylisoxazole-3-carboxamide]	0.532 µM
